Source: the NIST ThermoML archive (doi:10.1021/je300819g)

Details: Liquid, Ebulliometric method (Recirculating still)

CCNCCN [N-ethylethane-1,2-diamine]
Details | vapor or sublimation pressure [kPa]
358 K | 20.8
366.5 K | 29.6
374.1 K | 39.5
380.3 K | 49.7
390.2 K | 69.5
398.3 K | 90.2
401.9 K | 101.2
402.2 K | 101.5
